Reference: the supplement of paper PMC7645387

What was measured:
Assay in all cases: growth inhibition relative to DMSO control (fraction); higher = stronger growth inhibition
Conditions in all cases: treatment time: 6 days
PeTa = system: PeTa
Procedure: (§1)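 Drug combination matrices: GSK-LSD1 (0, 1, 10, 100 nM) was combined with a second epigenetic drug (0 to 10 uM) on MCC lines PeTa and MKL-1 and on HDFB fibroblasts for 6 days, in quadruplicate. Viability was read by CellTiter-Glo 2.0. The response is the fraction of growth inhibition relative to DMSO, as input to synergyfinder Bliss analysis.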

MKL-1 = system: MKL-1
Procedure: as §1

HDFB = system: HDFB
Procedure: as §1

c1ccc([C@@H]2C[C@H]2NC2CCNCC2)cc1 [GSK-LSD1] + Cc1cc2c(cc1N1C(=O)c3cccc4c(CCCO)ccc(c34)C1=O)n(C)c(=O)n2C [BAY299]
growth inhibition
Conditions	partner concentration 0 nM	partner concentration 1 nM	partner concentration 10 nM	partner concentration 100 nM	partner concentration 1000 nM	partner concentration 10000 nM
HDFB, GSK-LSD1 concentration 0 nM	–	-0.0107	-0.0132	0.0763	0.607	0.697
HDFB, GSK-LSD1 concentration 1 nM	-0.0232	-0.0193	0.0121	0.0867	0.635	0.702
HDFB, GSK-LSD1 concentration 10 nM	0.076	0.0719	0.0472	0.207	0.674	0.727
HDFB, GSK-LSD1 concentration 100 nM	0.0758	0.0715	0.0856	0.201	0.695	0.713
MKL-1, GSK-LSD1 concentration 0 nM	–	0.0343	-0.000673	0.0416	0.844	0.999
MKL-1, GSK-LSD1 concentration 1 nM	0.104	0.0952	0.0872	0.0914	0.936	0.999
MKL-1, GSK-LSD1 concentration 10 nM	0.516	0.425	0.457	0.475	0.972	1
MKL-1, GSK-LSD1 concentration 100 nM	0.753	0.738	0.69	0.722	0.981	1
PeTa, GSK-LSD1 concentration 0 nM	–	-0.0148	-0.062	0.00688	0.806	0.998
PeTa, GSK-LSD1 concentration 1 nM	-0.0592	-0.0708	-0.0758	0.0174	0.764	0.997
PeTa, GSK-LSD1 concentration 10 nM	0.258	0.223	0.194	0.304	0.836	0.999
PeTa, GSK-LSD1 concentration 100 nM	0.749	0.743	0.723	0.736	0.989	0.999

c1ccc([C@@H]2C[C@H]2NC2CCNCC2)cc1 [GSK-LSD1] + Cc1sc2c(c1C)C(c1ccc(Cl)cc1)=N[C@@H](CC(=O)OC(C)(C)C)c1nnc(C)n1-2 [(+)-JQ1]
growth inhibition
Conditions	partner concentration 0 nM	partner concentration 1 nM	partner concentration 10 nM	partner concentration 100 nM	partner concentration 1000 nM	partner concentration 10000 nM
HDFB, GSK-LSD1 concentration 0 nM	–	-0.0405	-0.0664	0.475	0.743	0.784
HDFB, GSK-LSD1 concentration 1 nM	0.0649	0.0389	0.0119	0.469	0.75	0.796
HDFB, GSK-LSD1 concentration 10 nM	0.0598	0.0402	0.0248	0.531	0.761	0.792
HDFB, GSK-LSD1 concentration 100 nM	0.0941	0.0548	0.115	0.607	0.773	0.817
MKL-1, GSK-LSD1 concentration 0 nM	–	-0.032	-0.0639	0.818	0.994	0.997
MKL-1, GSK-LSD1 concentration 1 nM	0.00341	-0.0162	-0.0305	0.799	0.994	0.998
MKL-1, GSK-LSD1 concentration 10 nM	0.349	0.33	0.364	0.849	0.999	1
MKL-1, GSK-LSD1 concentration 100 nM	0.792	0.766	0.766	0.917	0.999	1
PeTa, GSK-LSD1 concentration 0 nM	–	-0.0721	-0.114	0.804	0.95	0.976
PeTa, GSK-LSD1 concentration 1 nM	-0.00975	-0.0422	-0.106	0.67	0.945	0.968
PeTa, GSK-LSD1 concentration 10 nM	0.536	0.522	0.489	0.848	0.975	0.995
PeTa, GSK-LSD1 concentration 100 nM	0.819	0.765	0.749	0.925	0.995	0.998
